{"source": "paper PMC5478473", "about": "(Nature chemical biology, 2017)", "biological_target": "T1, Tet(50) (unidentified prokaryotic organism, UniProt A0A059WYP6)", "T1 sequence (A0A059WYP6 1-388)": "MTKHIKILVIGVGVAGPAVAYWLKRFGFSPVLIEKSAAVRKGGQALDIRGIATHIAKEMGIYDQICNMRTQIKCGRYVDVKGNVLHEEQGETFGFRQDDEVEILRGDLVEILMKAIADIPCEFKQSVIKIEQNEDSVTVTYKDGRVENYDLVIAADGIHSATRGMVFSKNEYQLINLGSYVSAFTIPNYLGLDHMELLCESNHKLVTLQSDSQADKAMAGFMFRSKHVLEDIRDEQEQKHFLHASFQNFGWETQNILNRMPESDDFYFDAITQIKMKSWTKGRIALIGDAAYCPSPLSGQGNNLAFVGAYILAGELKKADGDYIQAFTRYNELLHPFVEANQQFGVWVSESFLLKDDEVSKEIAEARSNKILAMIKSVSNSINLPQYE", "data": [{"smiles": "CN(C)[C@@H]1C(O)=C(C(N)=O)C(=O)[C@@]2(O)C(O)=C3C(=O)c4c(O)ccc(Cl)c4[C@@](C)(O)[C@H]3C[C@@H]12", "note": "[chlortetracycline]", "values": [{"measurement": "Km", "result": 6.3, "unit": "µM"}]}]}
